# Experimental data: patent US20070264354A1, “TREATMENT OF A WOUND WITH A VASODILATOR” (priority 2006, published 2007)
# Where no end group is shown, it is not given here.
# Experiments:
# [1] = system: capsaicin-sensitive cutaneous nerves (small sensory fibers); assay: Heat-step heat pain threshold after acute topical capsaicin (primary hyperalgesia); type: in vivo, human
# Experimental: In the heat-step procedure, basal blood flow was monitored at resting skin temperature and later at 32° C. The temperature was raised in increments of 2° C. per minute until a maximum temperature value of 48° C. was reached. Sensory responses (specifically, heat pain threshold, HPT) and peak net flows at each increment were documented. A second heat-step test followed an acute application of topical capsaicin to the skin to measure sensitization by HPT, i.e., primary hyperalgesia. Two normal and obese subjects complained that the pungency from the capsaicin was extreme and, as a consequence, the heat-step test for hyperalgesia was not conducted.
# [2] = system: capsaicin-sensitive cutaneous nerves (small sensory fibers); assay: Acute topical capsaicin-induced cutaneous blood flow by laser Doppler flowmetry; type: in vivo, human
# [3] = system: capsaicin-sensitive cutaneous nerves (small sensory fibers); assay: Capsaicin-induced pungency (quality of sensation); type: in vivo, human
# Experimental: Topical Capsaicin: Capsaicin, 8-methyl-N-vanillyl-6-nonenamide, is a vanilloid neurotoxin that targets somatic small primary afferent neurons. Capsaicin (1% in 75% ethanol, 25% saline) was applied topically for 45 minutes through a central chamber (300 μl capacity, 1 cm diameter) in a clear circular plastic perspex adhered to the skin. Throughout the application, perceptual responses and peak flow values were obtained. The vehicle was applied at different skin sites to 6 normal subjects.
# [4] = system: capsaicin-sensitive cutaneous nerves (small sensory fibers); assay: Capsaicin-induced desensitization (Cap-D); type: in vivo, human
# Experimental: Capsaicin-Induced Desensitization: Eight (8) normal subjects were recruited to ascertain the degree of capsaicin sensitivity of each of the tests described above. Each subject applied topical capsaicin to one forearm and thigh, and the vehicle to the opposing limb in 45 minute applications, 3-4 times daily for 5 days.
# diabetic wounds = details: cited from earlier work
# NOS = details: animals (Isenberg et al, 2005); cited from earlier work
# venous stasis ulcers = details: CGRP and VIP given together by iontophoresis (Gherardini et al, 1998b); cited from earlier work
# wound areas = details: 50 ul of 110 ug/ml solution topically (Li et al, 1980); cited from earlier work
# leukocyte chemotaxis = details: subdermal air sacs, mice (Lawman et al, 1985); cited from earlier work
compound,measurement,setting,value
"COc1cc(CNC(=O)CCCCC=CC(C)C)ccc1O [Capsaicin, 8-methyl-N-vanillyl-6-nonenamide]","Heat Step HPT Post-Cap - Hyperalgesia, Normal, Mean","[1]; after acute topical capsaicin, normal subjects",37.1 °C
same,"Heat Step HPT Post-Cap - Hyperalgesia, Obese, Mean","[1]; after acute topical capsaicin, obese subjects",39.8 °C
same,"fall in the HPT, average","[1]; both normal and obese groups, p<0.001",~7 C
same,share of population with pronounced hyperalgesic response,"[1]; normal population, n=11/13",~90%
same,share of population with pronounced hyperalgesic response,"[1]; obese population, n=43/53",Approximately 80%
same,"Capsaicin Latency, Indirect, Normal, Mean","[2]; latency to flare, indirect site, normal subjects",12 min
same,"Capsaicin Latency, Indirect, Obese, Mean","[2]; latency to flare, indirect site, obese subjects",26 min
same,"Capsaicin Latency, Direct, Normal, Mean","[2]; latency to vasodilatory response, direct site, normal subjects",11 min
same,"Capsaicin Latency, Direct, Obese, Mean","[2]; latency to vasodilatory response, direct site, obese subjects",21 min
same,"Capsaicin Flux, Direct, Normal, Mean","[2]; net peak flux, direct flow site, 1% topical capsaicin 45 min, forearm, normal subjects",299 AU
same,"Capsaicin Flux, Direct, Obese, Mean","[2]; net peak flux, direct flow site, 1% topical capsaicin 45 min, forearm, obese subjects",159 AU
same,"Capsaicin Flux, Indirect, Normal, Mean","[2]; net peak flux, indirect flow (flare) site, 1% topical capsaicin 45 min, normal subjects",257 AU
same,"Capsaicin Flux, Indirect, Obese, Mean","[2]; net peak flux, indirect flow (flare) site, 1% topical capsaicin 45 min, obese subjects",128 AU
same,capsaicin-induced pungency level,[3]; normal subjects,90%
same,share perceiving burn/pain,[3]; normal subjects,approximately 80%
same,share reporting a stinging/prickly sensation,[3]; normal subjects,20%
same,capsaicin-induced pungency level,[3]; obese subjects,45%
same,heat-induced flux in heat-ramp test after Cap-D,"[4]; direct and indirect flow, versus vehicle",decreased significantly
same,dose (mC)-response (flux) curve to transcutaneous electrical stimulation after Cap-D,[4]; indirect site,abolished neurogenic flare
same,blood flow on acute capsaicin challenge after Cap-D,[4]; normal subjects n=8,virtually no increased blood flow
same,pungency on acute capsaicin challenge after Cap-D,[4]; normal subjects n=8,no pungency
same,HPT after capsaicin-induced desensitization,"[4]; topical capsaicin 3-4 times daily for 5 days, normal subjects n=8, maximum temperature utilized",> 48 °C
"N=C(N)NCCC[C@H](N)C(=O)O [LA, L-Arginine]",wound healing,diabetic wounds; diabetic rats (Shi et al),improve wound healing
same,wound NOx levels,diabetic wounds; diabetic wounds (Shi et al),increased NOx levels to normal values
COC(=O)[C@@H](N)CCCNC(=N)N[N+](=O)[O-] [L-NAME],vessel diameter and blood flow in skin flaps,NOS,marked decreases in vessel diameter and blood flow
"VIP: Vasoactive Intestinal Polypeptide, peptide released by C-fibers (HSDAVFTDNYTRLRKQMAVKKYLNSILN; ends and bridges not checked; UniProt P01282 125-152, looked up)",healing of venous stasis ulcers,venous stasis ulcers,improved healing of venous stasis ulcers
"NGF: Nerve growth factor, instrumental in the synthesis of sensory neuropeptides in the DRG",wound healing,wound areas,markedly accelerated healing
same,leukocyte chemotaxis,leukocyte chemotaxis,significantly increased leukocyte chemotaxis
